Results as given in ChEMBL document CHEMBL5518236, “Discovery of Clinical Candidate AZD5462, a Selective Oral Allosteric RXFP1 Agonist for Treatment of Heart Failure” (J Med Chem, 2024).

Columns and labels:
[1] = Metabolic stability in human liver microsomes assessed as unbound intrinsic clearance at 1 uM measured upto 30 mins by LC-MS/MS analysis; format: ADME, Microsome; conditions: 0.5 h
[2] = Apparent permeability across apical to basolateral side in human Caco-2 cells at pH 7.4 by LC-MS/MS analysis; format: ADME, cell-based; conditions: Caco-2, pH 7.4
[3] = Metabolic stability in human hepatocytes assessed as intrinsic clearance measured per 10^6 viable cells/ml at 1 uM measured upto 120 mins by LC-MS/MS analysis; format: ADME, cell-based, Hepatocyte; conditions: read-out: CLH
Relaxin receptor 1 [4] = target: T1, Relaxin receptor 1 (Homo sapiens, UniProt Q9HBX9)
T1 sequence (Q9HBX9 whole entry): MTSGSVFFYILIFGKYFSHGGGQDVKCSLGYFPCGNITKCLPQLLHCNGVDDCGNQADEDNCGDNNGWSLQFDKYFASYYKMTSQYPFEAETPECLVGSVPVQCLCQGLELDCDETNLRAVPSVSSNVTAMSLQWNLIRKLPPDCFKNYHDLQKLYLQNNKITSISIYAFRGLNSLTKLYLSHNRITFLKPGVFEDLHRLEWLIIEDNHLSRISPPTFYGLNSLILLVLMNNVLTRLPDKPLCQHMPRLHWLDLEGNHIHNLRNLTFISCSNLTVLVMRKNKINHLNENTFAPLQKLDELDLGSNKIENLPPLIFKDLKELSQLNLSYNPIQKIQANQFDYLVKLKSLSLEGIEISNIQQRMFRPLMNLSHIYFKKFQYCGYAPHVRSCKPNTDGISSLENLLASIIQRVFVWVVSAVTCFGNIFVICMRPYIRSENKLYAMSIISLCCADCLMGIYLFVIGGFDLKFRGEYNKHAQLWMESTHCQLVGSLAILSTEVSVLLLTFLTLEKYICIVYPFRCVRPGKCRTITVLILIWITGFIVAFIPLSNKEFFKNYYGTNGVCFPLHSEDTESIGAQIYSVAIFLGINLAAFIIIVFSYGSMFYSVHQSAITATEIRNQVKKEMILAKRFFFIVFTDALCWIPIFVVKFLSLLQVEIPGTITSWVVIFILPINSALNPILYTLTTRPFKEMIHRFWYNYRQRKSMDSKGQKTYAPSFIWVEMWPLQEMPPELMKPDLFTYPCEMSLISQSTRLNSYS
Description: Agonist activity at human RXFP1 expressed in CHO cells assessed as increase in cAMP level measured after 2 hrs by HTRF cAMP assay

[5] = Metabolic stability in human hepatocytes assessed as unbound intrinsic clearance measured per 10^6 viable cells/ml at 1 uM measured upto 120 mins by LC-MS/MS analysis; format: ADME, cell-based, Hepatocyte; conditions: 2 h
[6] = Octanol/water partition coefficient, logD of the compound at pH 7.4 by shake flask method; format: physicochemical
[7] = Efflux ratio of apparent permeability from basolateral side to apical side over apical side to basolateral side in human Caco-2 cells at pH 7.4 by LC-MS/MS analysis; conditions: Caco-2, pH 7.4
[8] = Metabolic stability in human liver microsomes assessed as intrinsic clearance at 1 uM measured upto 30 mins by LC-MS/MS analysis; format: ADME, Microsome; conditions: read-out: CLH
[9] = Oral bioavailability in Han Wistar rat at 1.8 micromol/kg by LC-MS/MS analysis; format: ADME, organism-based; conditions: in vivo, 1.8 µmol/kg
[10] = Protein binding in rat plasma assessed as fraction unbound at 5 uM measured after 18 hrs by LC-MS/MS analysis; format: ADME, cell-free; conditions: read-out: PPB
[11] = Volume of distribution at steady state in Han Wistar rat at 0.90 micromol/kg, iv by LC-MS/MS analysis; format: ADME, organism-based; conditions: in vivo, dose 0.9 µmol/kg, read-out: Vdss
Relaxin receptor 1 [12] = target: T2, Relaxin receptor 1 (Rattus norvegicus, UniProt Q6R6I6); assay: Agonist activity at rat RXFP1 expressed in CHO-K1 cells assessed as increase in cAMP level measured after 2 hrs by HTRF cAMP assay; format: functional, cell-based
T2 sequence (Q6R6I6 whole entry): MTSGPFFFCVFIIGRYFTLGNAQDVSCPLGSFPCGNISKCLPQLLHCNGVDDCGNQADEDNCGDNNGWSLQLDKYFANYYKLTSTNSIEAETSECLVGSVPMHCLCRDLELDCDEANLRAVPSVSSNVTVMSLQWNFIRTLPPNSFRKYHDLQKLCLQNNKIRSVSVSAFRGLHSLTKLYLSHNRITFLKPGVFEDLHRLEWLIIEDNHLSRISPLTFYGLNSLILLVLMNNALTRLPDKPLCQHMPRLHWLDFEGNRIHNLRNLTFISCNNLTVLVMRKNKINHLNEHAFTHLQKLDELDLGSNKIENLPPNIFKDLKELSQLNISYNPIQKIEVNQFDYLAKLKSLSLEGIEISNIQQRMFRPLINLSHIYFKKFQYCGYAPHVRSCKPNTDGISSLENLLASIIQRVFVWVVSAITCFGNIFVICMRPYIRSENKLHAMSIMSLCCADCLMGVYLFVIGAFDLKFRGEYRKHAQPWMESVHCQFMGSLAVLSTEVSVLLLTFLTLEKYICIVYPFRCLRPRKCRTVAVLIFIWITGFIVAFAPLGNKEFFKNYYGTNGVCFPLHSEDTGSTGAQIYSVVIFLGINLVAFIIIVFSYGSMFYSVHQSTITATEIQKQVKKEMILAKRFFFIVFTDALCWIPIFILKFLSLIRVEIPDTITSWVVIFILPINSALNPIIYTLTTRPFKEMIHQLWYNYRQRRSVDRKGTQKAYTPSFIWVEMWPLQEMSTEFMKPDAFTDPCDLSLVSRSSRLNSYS

[13] = Metabolic stability in rat hepatocytes assessed as unbound intrinsic clearance measured per 10^6 viable cells/ml at 1 uM measured upto 120 mins by LC-MS/MS analysis; format: ADME, cell-based, Hepatocyte; conditions: 2 h
[14] = Clearance in Han Wistar rat at 0.90 micromol/kg, iv by LC-MS/MS analysis; format: ADME, organism-based; conditions: in vivo, dose 0.9 µmol/kg
[15] = Half life in Han Wistar rat at 0.90 micromol/kg, iv by LC-MS/MS analysis; format: ADME, organism-based; conditions: in vivo, dose 0.9 µmol/kg
[16] = Clearance in Han Wistar rat at 0.93 micromol/kg, iv by LC-MS/MS analysis; format: ADME, organism-based; conditions: in vivo, dose 0.93 µmol/kg
[17] = Half life in Han Wistar rat at 0.93 micromol/kg, iv by LC-MS/MS analysis; format: ADME, organism-based; conditions: in vivo, dose 0.93 µmol/kg
[18] = Volume of distribution at steady state in Han Wistar rat at 0.93 micromol/kg, iv by LC-MS/MS analysis; format: ADME, organism-based; conditions: in vivo, dose 0.93 µmol/kg, read-out: Vdss
[19] = Oral bioavailability in Han Wistar rat at 9.3 micromol/kg by LC-MS/MS analysis; format: ADME, organism-based; conditions: in vivo, 9.3 µmol/kg
Relaxin receptor 1 [20] = target: T3, Relaxin receptor 1 (Mus musculus, UniProt Q6R6I7)
T3 sequence (Q6R6I7 whole entry): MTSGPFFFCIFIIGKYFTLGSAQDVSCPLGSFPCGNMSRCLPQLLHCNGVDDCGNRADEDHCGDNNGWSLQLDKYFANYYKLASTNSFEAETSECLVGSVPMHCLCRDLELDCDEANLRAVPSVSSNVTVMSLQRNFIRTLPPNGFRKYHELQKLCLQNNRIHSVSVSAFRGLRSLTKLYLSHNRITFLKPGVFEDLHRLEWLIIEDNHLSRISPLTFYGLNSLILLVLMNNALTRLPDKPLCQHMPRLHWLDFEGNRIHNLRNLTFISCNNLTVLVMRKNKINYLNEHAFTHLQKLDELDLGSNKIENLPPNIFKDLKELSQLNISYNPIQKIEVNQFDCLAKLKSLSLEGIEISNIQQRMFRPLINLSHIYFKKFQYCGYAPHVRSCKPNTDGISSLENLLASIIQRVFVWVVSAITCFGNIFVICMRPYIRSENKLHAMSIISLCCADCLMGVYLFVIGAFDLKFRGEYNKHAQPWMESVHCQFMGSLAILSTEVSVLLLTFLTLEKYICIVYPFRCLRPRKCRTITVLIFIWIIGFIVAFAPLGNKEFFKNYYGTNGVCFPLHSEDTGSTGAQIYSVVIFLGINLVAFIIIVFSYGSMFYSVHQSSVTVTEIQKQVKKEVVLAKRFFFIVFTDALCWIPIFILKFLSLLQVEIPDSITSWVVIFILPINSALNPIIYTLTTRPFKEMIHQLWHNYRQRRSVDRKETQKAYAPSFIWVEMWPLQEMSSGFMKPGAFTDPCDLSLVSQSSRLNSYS
Description: Agonist activity at mouse RXFP1 expressed in CHO-K1 cells assessed as increase in cAMP level measured after 2 hrs by HTRF cAMP assay

[21] = Half life in Han Wistar rat at 0.96 micromol/kg, iv by LC-MS/MS analysis; format: ADME, organism-based; conditions: in vivo, dose 0.96 µmol/kg
[22] = Volume of distribution at steady state in Han Wistar rat at 0.96 micromol/kg, iv by LC-MS/MS analysis; format: ADME, organism-based; conditions: in vivo, dose 0.96 µmol/kg, read-out: Vdss
[23] = Oral bioavailability in Han Wistar rat at 1.9 micromol/kg by LC-MS/MS analysis; format: ADME, organism-based; conditions: in vivo, 1.9 µmol/kg
[24] = Clearance in Han Wistar rat at 0.96 micromol/kg, iv by LC-MS/MS analysis; format: ADME, organism-based; conditions: in vivo, dose 0.96 µmol/kg
Relaxin receptor 1 [25] = target: T1, Relaxin receptor 1; assay: Agonist activity at human RXFP1 expressed in HEK293 cells co-expressing G-alphas assessed as cAMP production measured after 15 mins by BRET sensor assay
Relaxin receptor 1 [26] = target: T1, Relaxin receptor 1; assay: Agonist activity at human RXFP1 expressed in HEK293 cells assessed as ERK phosphorylation measured after 24 hrs by HTRF assay
Relaxin receptor 1 [27] = target: T1, Relaxin receptor 1; assay: Agonist activity at human RXFP1 expressed in CHO-K1 cells assessed as dynamic mass redistribution (DMR) measured after 60 mins by G-protein coupling DMR assay
Relaxin receptor 1 [28] = target: T1, Relaxin receptor 1; assay: Agonist activity at human RXFP1 expressed in HEK293 cells co-expressing G-alphaz assessed as cAMP production measured after 15 mins by BRET sensor assay
Relaxin receptor 1 [29] = target: T1, Relaxin receptor 1; assay: Agonist activity at human RXFP1 expressed in CHO-K1 cells assessed as dynamic mass redistribution (DMR) measured after 60 mins pretreated with PTX by G-protein coupling DMR assay
Relaxin receptor 1 [30] = target: T1, Relaxin receptor 1; assay: Agonist activity at human RXFP1 expressed in HEK293 cells assessed as cAMP production measured after 15 mins by BRET sensor assay
[31] = Protein binding in human plasma assessed as fraction unbound at 5 uM measured after 18 hrs by LC-MS/MS analysis; format: ADME, cell-free; conditions: read-out: PPB
Relaxin receptor 1 [32] = target: T1, Relaxin receptor 1; assay: Agonist activity at human RXFP1 expressed in CHO-K1 cells assessed as dynamic mass redistribution (DMR) measured after 60 mins pretreated with UBO-QIC by G-protein coupling DMR assay
Relaxin receptor 1 [33] = target: T1, Relaxin receptor 1; assay: Agonist activity at human RXFP1 expressed in HEK293 cells coexpressing GRK2 assessed as beta-arrestin internalization by BRET assay relative to control

SMILES | CL free [1] | hepatocyte CLint at 1 µM [3] [µL/min/1e6 cells] | EC50 (Relaxin receptor 1 [4]) [nM] | CL free [5] | logD [6] | microsomal CLint at 1 µM [8] [µL/min/mg] | fraction unbound at 18 h, 5 µM [10] | EC50 (Relaxin receptor 1 [12]) [µM] | CL free [13] [µL/min] | EC50 (Relaxin receptor 1 [20]) [nM] | also measured
COc1cc(F)c(O[C@H]2CC[C@@](C)(C(=O)O)CC2)cc1C(=O)N[C@@H]1[C@H]2CC[C@H](C2)[C@@H]1C(=O)NCC(C)(C)C | 20 µL/min/mg | 2.7 | 39.8 | 4.3 µL/min | 3 | 14 |  |  |  |  | Papp A→B [2]: 81 ×10⁻⁶ cm/s; efflux ratio [7]: 6.8
COc1cc(C#N)c(O[C@H]2CC[C@@](C)(C(=O)O)CC2)cc1C(=O)N[C@@H]1[C@H]2CC[C@H](C2)[C@@H]1C(=O)NC12CC(F)(C1)C2 | 4.7 µL/min/mg | 1.5 |  | 2.6 µL/min | 2.2 | 4 | 0.101 | 10.5 | 11 |  | bioavailability [9]: 17%; Vd [11]: 0.96 L/kg; clearance [14]: 59 mL/min/kg; half-life [15]: 84 min
COc1cc(C#N)c(O[C@H]2CC[C@@](C)(C(=O)O)CC2)cc1C(=O)N[C@@H]1[C@H]2CC[C@H](C2)[C@@H]1C(=O)NCC(C)(C)C | < 4.3 µL/min/mg | < 1.3 |  | < 2 µL/min | 2.3 | < 3 | 0.078 | 15.8 | 15 | 1260 | clearance [16]: 41 mL/min/kg; half-life [17]: 120 min; Vd [18]: 0.55 L/kg; bioavailability [19]: 61%
COc1cc(F)c(O[C@H]2CC[C@@H](C(=O)O)CC2)cc1C(=O)N[C@@H]1[C@H]2CC[C@H](C2)[C@@H]1C(=O)NCC(C)(C)C | 8.5 µL/min/mg | 2.2 | 1000 | 3.4 µL/min | 2.3 | 6.8 | 0.079 |  | 133 | > 39800 | half-life [21]: 108 min; Vd [22]: 0.6 L/kg; bioavailability [23]: 5.6%; clearance [24]: 64 mL/min/kg
COc1cc(F)c(O[C@H]2CC[C@@](C)(C(=O)O)CC2)cc1C(=O)N[C@@H]1[C@H]2CC[C@H](C2)[C@@H]1C(=O)Nc1ccc(F)c(S(F)(F)(F)(F)F)c1 | 3.39 10^3uL/min/mg | 21 |  | 2.1 10^3uL/min | 4.9 | 61 |  |  |  |  | EC50 (Relaxin receptor 1 [25]): 0.316 nM; EC50 (Relaxin receptor 1 [26]): 3.16 nM; EC50 (Relaxin receptor 1 [27]): 0.0251 nM; EC50 (Relaxin receptor 1 [28]): 2.51 nM; EC50 (Relaxin receptor 1 [29]): 0.02 nM; EC50 (Relaxin receptor 1 [30]): 0.0316 nM; fraction unbound at 18 h, 5 µM [31]: < 0.0023; EC50 (Relaxin receptor 1 [32]): 0.0251 nM; EC50 (Relaxin receptor 1 [33]): 1.51 nM
